Laboratory results reported in paper PMC7287670, “Tyrosinase Inhibition and Kinetic Details of Puerol A Having But-2-Enolide Structure from Amorpha fruticosa” (Molecules, 2020).
Where two headings read alike, the source gives them in different places.

Assays:
[1] = molecular target: T1, Mushroom tyrosinase (diphenolase) (Agaricus bisporus, UniProt C7FF04); assay: Mushroom tyrosinase diphenolase inhibition (L-DOPA as substrate, 475 nm); format: biochemical; settings: for IC50: substrate L-DOPA
T1 construct: purchased Sigma-Aldrich Co., St. Louis, MO, USA
Procedure: (§1) Mushroom tyrosinase (EC 1. 14. 18. 1) (Sigma-Aldrich Co., St. Louis, MO, USA) activity was performed in accordance with the previously described method with subtle modification, using L-tyrosine and L-3,4-dihydroxylphenylalanine (L-DOPA) for monophenolase and diphenolase as substrates, respectively. Two hundred sixty units/mL of the tyrosinase stock solution was prepared at optimum pH 6.8 (0.05 M phosphate buffer). The inhibitors were initially dissolved in DMSO and diluted to several concentrations. […] Then, 10 μL of the enzyme was added to the mixture. Subsequent absorbance of DOPA chrome formation was recorded at 475 nm by means of an UV-Vis spectrophotometer (SpectraMax M3, Molecular Devices, San Jose, CA, USA) in a 96-well microplate at 30 °C. Three separate determinations were conducted for each assay.
(§2) The characteristic of tyrosinase inhibition was represented by Lineweaver−Burk double-reciprocal-plot and Dixon plot at specified concentrations of the substrates and inhibitors, respectively.

[2] = molecular target: T2, Mushroom tyrosinase (monophenolase) (Agaricus bisporus, UniProt C7FF04); assay: Mushroom tyrosinase monophenolase inhibition (L-tyrosine as substrate, 475 nm); format: biochemical; settings: for IC50: substrate L-tyrosine; for L-Tyrosine Inhibition Mode: Lineweaver–Burk plot
T2 construct: purchased Sigma-Aldrich Co., St. Louis, MO, USA
Procedure: as §1, §2

[3] = tested on: B16F10 mouse melanoma cells; assay: L-DOPA oxidation (cellular tyrosinase) in α-MSH-treated B16F10 melanoma cells; format: cell-based; settings: B16 cells, 48 h in the presence of α-MSH
Procedure: (§3) The B16F10 mouse melanoma cell (American Type of Culture Collection, VA, USA) were cultured as previously reported. Briefly, the cells were incubated in DMEM containing 10% fetal bovine serum and 1% penicillin/streptomycin (Sigma–Aldrich, St. Louis, MO, USA) at 37 °C in a 5% CO2 humidified incubator.
B16F10 mouse melanoma cells were seeded on to 6-well plates at a density of 1 × 10^5 cells per well and cultured for 24 h. Then, the cells were treated with α-MSH (1 μM) in the presence or absence of different concentrations of compound 1, followed by incubation for 48 h. The incubated cells were collected and dissolved with 1% Triton X-100 solution for 1 h on ice. Then, the cells were cultured for 4 h with 100 μL (2 mg/mL) L-DOPA in a 5% CO2 humidifying incubator at 37 °C condition. After that, by using a microplate reader (Bio-Rad), absorbance at 490 nm was measured.

[4] = tested on: B16F10 mouse melanoma cells; assay: Cell viability assay (MTT) in B16F10 melanoma cells; format: cell-based; settings: B16 cells, 48 h
Procedure: as §3
The cell viability assay of the B16F10 mouse melanoma cells were conducted with subtle variation in previous methods. The cells were incubated in 96-well plates overnight. […] After incubation, 5 μg/mL of MTT solution was added to the each well and the cells were incubated for 3 h. After the medium was removed, the cells were treated with dimethyl sulfoxide (DMSO) and cultured at room temperature for 20 min. The absorbance at 595 nm was measured on a Bio-Rad microplate reader (Hercules, CA, USA).

[5] = tested on: B16F10 mouse melanoma cells; assay: Melanin content in α-MSH-stimulated B16F10 melanoma cells; format: cell-based; settings: B16 cells, 48 h in the presence of α-MSH, read-out: Melanin Synthesis IC50
Procedure: as §3
For the analysis of melanin content accumulated in the cytosol, B16F10 mouse melanoma cells were seeded on to six-well plates at a density of 1 × 10^5 cells per well, and cultured for 24 h. Then, the cells were treated with 1 μM of α-MSH (Sigma–Aldrich, St. Louis, MO, USA) in the presence or absence of different concentrations of compound 1. Thereafter, the cells were collected using trypsin-EDTA (Lonza, Walkersville, MD, USA) and dissolved in 1 N NaOH, including 10% DMSO at 65 °C for 24 h. The melanin content was determined at 415 nm by a Bio-Rad microplate reader.

tyrosinase [6] = molecular target: T3, tyrosinase (Agaricus bisporus, UniProt C7FF04); assay: Fluorescence quenching measurement of binding affinity to tyrosinase
T3 construct: purchased Sigma-Aldrich Co., St. Louis, MO, USA
Procedure: To measure fluorescence from the tyrosinase enzyme, 10 μL of 260 unit/mL enzyme solution with 165 μL of phosphate buffer (0.05 M) were added into 96-well black immunoplates. Afterward, 5 μL of various concentrations (2.5–20 μM) of inhibitor was added into each well. All fluorescence spectra were obtained by a SpectraMax M3 spectrophotometer (Molecular Devices, San Jose, CA, USA). The spectra were measured from 300 to 400 nm with emission slits regulated to 2.0 nm, and the excitation wavelength was 265 nm. The Stern–Volmer quenching constant (KSV) was estimated using Equation (6). All experiments were carried out in triplicate, and the mean values were calculated. (6) […] where F0 and F are the fluorescence intensities in the absence and presence of quencher (Q). KSV is the Stern–Volmer quenching constant [L M^−1]. For static quenching, the correlation between the fluorescence intensity and the concentration of the quencher for the series of reactions can be expressed by Equation (7). (7) log[(F0 − F)/F]=logKA+nlog[Q]f
F0 and F are the fluorescence intensities in the absence and presence of inhibitor; KA is the binding constant; n is the number of binding sites of the enzyme; Qf is the concentration of inhibitor [24].

[7] = molecular target: T4, tyrosinase (monophenolase) (Agaricus bisporus, UniProt C7FF04); assay: Time-dependent assays and progress curves (slow-binding kinetics, lag phase); format: biochemical, mushroom; settings: for Type of inhibitor (time-dependent inhibition): L-tyrosine, preincubation and progress curves
T4 construct: purchased Sigma-Aldrich Co., St. Louis, MO, USA
Procedure: The assays were carried out using tyrosinase (260 units) and L-tyrosine as a substrate of monophenolase in 0.25 M phosphate buffer (pH 6.8) at 30 °C. The enzyme activity was recorded sequentially for 30 min by a UV spectrophotometer. To evaluate the time-dependent inhibition and the kinetic parameters of tyrosinase, progress curves with 30 s intervals were measured at different concentrations of the inhibitor and substrate. The data were through the use of Sigma Plot (SPCC Inc., Chicago, IL, USA) as a nonlinear regression program to provide the respective parameters for each curve; A (absorbance at 475 nm), vi (initial rate), vss (steady-state rate), kobs (apparent first-order rate constant for the transition from vi to vss), and Kiapp (apparent Ki) in accordance with the following Equations (2)–(5). (2) A=vsst+vi − vss1 −exp−kobst/kobs (3) v/v0=exp (−kobst) (4) kobs=k4 (1+[I]/Kiapp) (5) Kiapp=k4/k3
The value of −kobs was estimated by a slope of the straight line from the plot of the natural log of the residual enzyme activity vs. the preincubation time. The plot of kobs vs. the concentration of inhibitors gave the values of k3, k4, and Kiapp on the basis of Morrison and Walsh’s method.

tyrosinase [8] = molecular target: T3, tyrosinase; assay: HPLC analysis of tyrosinase inhibition with N-acetyl-L-tyrosine as substrate; format: biochemical; settings: HPLC at 275 nm
Procedure: The HPLC analysis of tyrosinase inhibition was carried out by giving minor alterations in the previous procedure with N-acetyl-L-tyrosine as a substrate. The 4.5 mM of the substrate was prepared in the 50 mM phosphate buffer (pH 6.8). Then, 670 units/mL tyrosinase (Sigma-Aldrich Co., St. Louis, MO, USA) solution and several concentrations of the inhibitor solution were arranged. The N-acetyl-L-tyrosine was observed on 275 nm with 4.6 min of tR by eluting the mobile phase consisting of A (H2O) and B (acetonitrile, ACN), with the following isocratic condition: 0–8 min and A/B = 90:10 (v/v). After 20 μL of the sample solution was subjected to the HPLC (Pack ODS-AQ C18 column, YMC) system, the reactions were measured every 15 min. All procedures were carried out at room temperature.

[9] = pH 6.8, 30 °C, read-out: L-DOPA IC50 Value (diphenolase)
[10] = pH 6.8, 30 °C, read-out: L-Tyrosine IC50 Value (monophenolase)
[11] = slow-binding, L-tyrosine as substrate

T3 sequence (C7FF04 1-392): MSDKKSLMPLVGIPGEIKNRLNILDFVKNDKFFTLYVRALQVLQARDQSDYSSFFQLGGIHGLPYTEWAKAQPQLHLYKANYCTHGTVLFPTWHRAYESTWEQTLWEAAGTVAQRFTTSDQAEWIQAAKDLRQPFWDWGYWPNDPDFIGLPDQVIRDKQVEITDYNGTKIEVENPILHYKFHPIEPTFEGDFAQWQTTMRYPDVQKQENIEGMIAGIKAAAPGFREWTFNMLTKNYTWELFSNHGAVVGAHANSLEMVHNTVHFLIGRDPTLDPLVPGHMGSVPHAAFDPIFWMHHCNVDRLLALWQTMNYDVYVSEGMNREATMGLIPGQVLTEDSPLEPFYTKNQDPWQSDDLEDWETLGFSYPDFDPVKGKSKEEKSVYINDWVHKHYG
T2 sequence (C7FF04 1-392): as above
T1 sequence (C7FF04 1-392): as above
T4 sequence (C7FF04 1-392): as above

Structure (SMILES): O=C1C=C(c2ccc(O)cc2O[C@@H]2O[C@H](CO)[C@@H](O)[C@H](O)[C@H]2O)C(Cc2ccc(O)cc2)O1 (stereo partly shown) [Compound 2, Kuzubutenolide A]
- IC50 [1, 9]: > 200 µM
- IC50 ([1]; read-out: IC50 diphenolase): 1900 µM
- IC50 [2, 10]: > 200 µM
- IC50 ([2]; read-out: IC50 monophenolase): 1500 µM

Structure (SMILES): O=c1cc(CO)occ1O [Kojic acid, reference compound]
- IC50 [3]: > 500 µM
- Cytotoxicity LD50 [4]: >500 µM
- IC50 [5]: > 500 µM

Structure (SMILES): O=C1C=C(c2ccc(O)cc2O)C(Cc2ccc(O)cc2)O1 (stereo not shown) [Compound 1, Puerol A]
- Ki ([1]; diphenolase, Dixon plot): 1.95 µM
- L-DOPA Inhibition Mode ([1]; diphenolase, Lineweaver–Burk plot): competitive inhibition mode
- IC50 [1, 9]: 3.88 ± 0.3 µM
- IC50 [3]: 23.9 ± 1.4 µM
- Reversibility of inhibition ([2]; initial velocity vs tyrosinase and inhibitor concentrations): reversible inhibitor
- Ki ([2]; monophenolase, Dixon plot): 0.87 µM
- L-Tyrosine Inhibition Mode ([2]; monophenolase): Competitive
- L-Tyrosine Inhibition Mode ([2]; monophenolase, listed as puerol A): competitively
- IC50 [2, 10]: 2.2 ± 0.2 µM
- Cytotoxicity LD50 [4]: 137.8 ± 1.2 µM
- n (number of binding sites) (tyrosinase [6]; from log[(F0 − F)/F] plot): one
- KSV (Stern–Volmer quenching constant) (tyrosinase [6]; inhibitor 2.5–20 μM, excitation 265 nm, emission 300–400 nm): 145000 L/mol
- Ki ([7]; Kiapp = k4/k3): 0.107 µM
- Type of inhibitor (time-dependent inhibition) [7]: simple, reversible, slow-binding inhibitor
- Type of inhibitor (time-dependent inhibition) ([7]; listed as Puerol A): reversible, competitive, simple slow-binding inhibitor
- Type of inhibitor (time-dependent inhibition) ([7]; listed as puerol A): competitive inhibitor and reversible, simple slow-binding inhibitor
- lag phase of L-tyrosine oxidation ([7]; inhibitor 0.5–8.0 μM, 60 s without inhibitor): up to 600 s
- k3 [7, 11]: 465 M⁻¹ s⁻¹
- k4 [7, 11]: 0.003 min⁻¹
- oxidation of N-acetyl-L-tyrosine blocked (tyrosinase [8]; 5 μM): 56%
- oxidation of N-acetyl-L-tyrosine blocked (tyrosinase [8]; 10 μM): 86%
- oxidation of N-acetyl-L-tyrosine blocked (tyrosinase [8]; 20 μM, listed as Puerol A): completely inhibited
- oxidation of N-acetyl-L-tyrosine blocked (tyrosinase [8]; 20 μM, listed as puerol A): 95%
- IC50 [5]: 11.4 ± 1.2 µM
